Measured values: PubChem BioAssay AID330 (DTP/NCI, 2004)
“And” between values parts separate entries of the source, which are not always exact repeats. Identical values can stand only once. Toxic doses and inconclusive results are not listed. The calls were made as follows: active = survival T/C of 150% or more; inactive = T/C below 125% in these data.

Tested on: P388 leukemia ip, CD2F1 mice, survival T/C
Assay: NCI In Vivo Anticancer Drug Screen. Data for tumor model P388 Leukemia (intraperitoneal) in CD2F1 (CDF1) mice
Conditions: endpoint: median survival time, higher = longer survival
Method in brief: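 Mice carrying the transplanted tumor received test compound or vehicle. Survival was recorded in each group, and the value is the treated-group measurement divided by that of the vehicle-treated control group.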

[1] = dose: 50.0 mg/kg/injection, schedule: Q01DX005 (ip), vehicle: saline
[2] = dose: 100.0 mg/kg/injection, schedule: Q01DX005 (ip), vehicle: saline
[3] = dose: 60.0 mg/kg/injection, schedule: Q01DX005 (ip), vehicle: Klucel (hydroxypropylcellulose) (HPC)
[4] = dose: 120.0 mg/kg/injection, schedule: Q01DX005 (ip), vehicle: Klucel (hydroxypropylcellulose) (HPC)
[5] = dose: 240.0 mg/kg/injection, schedule: Q01DX005 (ip), vehicle: Klucel (hydroxypropylcellulose) (HPC)
[6] = dose: 60.0 mg/kg/injection, schedule: Q01DX005 (ip), vehicle: saline with Tween-80
[7] = dose: 120.0 mg/kg/injection, schedule: Q01DX005 (ip), vehicle: saline with Tween-80
[8] = dose: 60.0 mg/kg/injection, schedule: Q01DX005 (ip), vehicle: saline
[9] = dose: 120.0 mg/kg/injection, schedule: Q01DX005 (ip), vehicle: saline
[10] = dose: 240.0 mg/kg/injection, schedule: Q01DX005 (ip), vehicle: saline
[11] = dose: 50.0 mg/kg/injection, schedule: Q01DX005 (ip), vehicle: Klucel (hydroxypropylcellulose) (HPC)
[12] = dose: 240.0 mg/kg/injection, schedule: Q01DX005 (ip), vehicle: saline with Tween-80
[13] = dose: 50.0 mg/kg/injection, schedule: Q01DX009 (ip), vehicle: Klucel (hydroxypropylcellulose) (HPC)
[14] = dose: 100.0 mg/kg/injection, schedule: Q01DX009 (ip), vehicle: Klucel (hydroxypropylcellulose) (HPC)
[15] = dose: 200.0 mg/kg/injection, schedule: Q01DX009 (ip), vehicle: Klucel (hydroxypropylcellulose) (HPC)

Measured: T/C

CN(C)C1=NC(NCCc2ccccc2)(N(C)C)OC(N(C)C)=N1 (stereo not drawn)
inactive: dose: 25.0 mg/kg/injection, schedule: Q01DX005 (ip), vehicle: saline 100 % of control | [1] 107 % of control | [2] 100 % of control

CCOC(=O)c1c(N=P(c2ccccc2)(c2ccccc2)c2ccccc2)n(C)c(=O)n(C)c1=O
inactive: [3] 105 % of control | [4] 99 % of control | [5] 98 % of control

COc1ccc(C2=C(O)c3cc4ccccc4nc3S2(=O)=O)cc1
inactive: dose: 50.0 mg/kg/injection, schedule: Q04DX002 (ip), vehicle: saline 103 % of control | dose: 100.0 mg/kg/injection, schedule: Q04DX002 (ip), vehicle: saline 100 % of control | dose: 200.0 mg/kg/injection, schedule: Q04DX002 (ip), vehicle: saline 102 % of control

COc1ccc(/C=C/C(CCN(C)C)=N/NC(=S)Nc2ccc(Br)cc2)cc1
inactive: dose: 100.0 mg/kg/injection, schedule: Q01DX001 (ip), vehicle: saline with Tween-80 101 % of control | dose: 200.0 mg/kg/injection, schedule: Q01DX001 (ip), vehicle: saline with Tween-80 96 % of control | dose: 400.0 mg/kg/injection, schedule: Q01DX001 (ip), vehicle: saline with Tween-80 105 % of control

CCOC(=O)/C=C1\CCCn2c1ncc(C(=O)OCC)c2=O
inactive: [3] 101 % of control | [4] 100 % of control | [5] 108 % of control

COc1cc(C(c2cc3c(cc2OC(C)=O)OCO3)C(C(C)=O)C(C)=O)cc(OC)c1OC(C)=O (stereo not drawn)
inactive: [6] 90 % of control | [7] 96 % of control

COC(CN1C(=O)CSC1=S)OC
inactive: dose: 50.0 mg/kg/injection, schedule: Q01DX009 (ip), vehicle: saline with Tween-80 114 % of control | dose: 100.0 mg/kg/injection, schedule: Q01DX009 (ip), vehicle: saline with Tween-80 117 % of control | dose: 200.0 mg/kg/injection, schedule: Q01DX009 (ip), vehicle: saline with Tween-80 117 % of control

CCC[C@@H](O)CC(=O)N[C@@H](CO)c1ccccc1
inactive: [8] 96 % of control | [9] 95 % of control | [10] 96 % of control

CC(C)(S)[C@H]1NC(=O)NC1=O
inactive: [11] 99 % of control | dose: 100.0 mg/kg/injection, schedule: Q01DX005 (ip), vehicle: Klucel (hydroxypropylcellulose) (HPC) 99 % of control | dose: 200.0 mg/kg/injection, schedule: Q01DX005 (ip), vehicle: Klucel (hydroxypropylcellulose) (HPC) 103 % of control

COc1ccc(-c2cc(-c3ccccc3)[nH]c(=O)c2C#N)cc1
inactive: dose: 12.5 mg/kg/injection, schedule: Q01DX009 (ip), vehicle: acid diluted with saline 101 % of control | dose: 25.0 mg/kg/injection, schedule: Q01DX009 (ip), vehicle: acid diluted with saline 99 % of control | dose: 50.0 mg/kg/injection, schedule: Q01DX009 (ip), vehicle: acid diluted with saline 101 % of control

O=C1OC(C(O)C(O)CO)C(O)C1O (stereo not drawn)
inactive: [1] 108 % of control | [2] 100 % of control | dose: 200.0 mg/kg/injection, schedule: Q01DX005 (ip), vehicle: saline 95 % of control

COc1cc(-c2ccc(O)cc2)c(OC)c(O)c1-c1ccc(O)c(O)c1
inactive: dose: 0.6 mg/kg/injection, schedule: Q01DX009 (ip), vehicle: saline 100 % of control | dose: 1.2 mg/kg/injection, schedule: Q01DX009 (ip), vehicle: saline 95 % of control | dose: 10.0 micrograms/kg/injection, schedule: Q01DX009 (ip), vehicle: saline with Tween-80 111 % of control | dose: 20.0 micrograms/kg/injection, schedule: Q01DX009 (ip), vehicle: saline with Tween-80 105 % of control | dose: 40.0 micrograms/kg/injection, schedule: Q01DX009 (ip), vehicle: saline with Tween-80 104 % of control | dose: 80.0 micrograms/kg/injection, schedule: Q01DX009 (ip), vehicle: saline with Tween-80 105 % of control

CC(C)(C)OOC(=O)C1CCCCC1
inactive: [6] 100 % of control | [7] 103 % of control | [12] 92 % of control

NC1=NN(Cc2csc(-c3ccccc3)n2)C(=O)C1
inactive: [6] 103 % of control | [7] 95 % of control | [12] 103 % of control

CS(=O)(=O)CC(=N\O)/C(CS(C)(=O)=O)=N/O
inactive: [8] 103 % of control | [9] 94 % of control | [10] 103 % of control

COc1ccc2c(c1)C1(C)CC(OC1=O)C2=O (stereo not drawn)
inactive: dose: 25.0 mg/kg/injection, schedule: Q01DX001 (ip), vehicle: Klucel (hydroxypropylcellulose) (HPC) 99 % of control | dose: 50.0 mg/kg/injection, schedule: Q01DX001 (ip), vehicle: Klucel (hydroxypropylcellulose) (HPC) 100 % of control | dose: 100.0 mg/kg/injection, schedule: Q01DX001 (ip), vehicle: Klucel (hydroxypropylcellulose) (HPC) 100 % of control

CSc1nc2ccc(NC(=O)/C=N/O)cc2s1
inactive: [13] 91 % of control | [14] 92 % of control | [15] 87 % of control and 90 % of control

O=S(=O)(NCCNS(=O)(=O)c1ccccc1)c1ccccc1
inactive: dose: 25.0 mg/kg/injection, schedule: Q01DX009 (ip), vehicle: Klucel (hydroxypropylcellulose) (HPC) 90 % of control | [13] 100 % of control | [14] 90 % of control | [15] 91 % of control

N#Cc1ccc[n+](Cc2c(Cl)cccc2Cl)c1
inactive: dose: 6.25 mg/kg/injection, schedule: Q01DX009 (ip), vehicle: saline 121 % of control | dose: 12.5 mg/kg/injection, schedule: Q01DX009 (ip), vehicle: saline 108 % of control and 112 % of control | dose: 25.0 mg/kg/injection, schedule: Q01DX009 (ip), vehicle: saline 101 % of control and 115 % of control | dose: 50.0 mg/kg/injection, schedule: Q01DX009 (ip), vehicle: saline 110 % of control and 97 % of control

COc1cc(C)c2c(OC)c(C)c(=O)oc2c1OC
inactive: dose: 6.25 mg/kg/injection, schedule: Q01DX005 (ip), vehicle: Klucel (hydroxypropylcellulose) (HPC) 105 % of control | dose: 12.5 mg/kg/injection, schedule: Q01DX005 (ip), vehicle: Klucel (hydroxypropylcellulose) (HPC) 100 % of control | dose: 25.0 mg/kg/injection, schedule: Q01DX005 (ip), vehicle: Klucel (hydroxypropylcellulose) (HPC) 97 % of control | [11] 104 % of control

O=C(c1ccco1)N1CCN(C(=O)c2ccco2)CC1
inactive: dose: 50.0 mg/kg/injection, schedule: Q01DX005 (ip), vehicle: saline with Tween-80 104 % of control | dose: 100.0 mg/kg/injection, schedule: Q01DX005 (ip), vehicle: saline with Tween-80 96 % of control | dose: 200.0 mg/kg/injection, schedule: Q01DX005 (ip), vehicle: saline with Tween-80 100 % of control

N=c1ncn(C2OC(CO)C(O)C2O)c2nc(Br)[nH]c12 (stereo not drawn)
inactive: dose: 25.0 mg/kg/injection, schedule: Q04DX003 (ip), vehicle: saline with Tween-80 100 % of control | dose: 50.0 mg/kg/injection, schedule: Q04DX003 (ip), vehicle: saline with Tween-80 105 % of control | dose: 100.0 mg/kg/injection, schedule: Q04DX003 (ip), vehicle: saline with Tween-80 100 % of control | dose: 200.0 mg/kg/injection, schedule: Q04DX003 (ip), vehicle: saline with Tween-80 98 % of control

CC1=C(C(=O)Nc2ccccc2)C(c2ccccc2F)C(C(=O)Nc2ccccc2)=C(C)N1
inactive: dose: 100.0 mg/kg/injection, schedule: Q04DX002 (ip), vehicle: saline with Tween-80 100 % of control | dose: 200.0 mg/kg/injection, schedule: Q04DX002 (ip), vehicle: saline with Tween-80 100 % of control | dose: 400.0 mg/kg/injection, schedule: Q04DX002 (ip), vehicle: saline with Tween-80 91 % of control

Cc1cc(C)nc(N/N=C/c2c(Cl)cccc2Cl)n1
inactive: dose: 50.0 mg/kg/injection, schedule: Q04DX003 (ip), vehicle: Klucel (hydroxypropylcellulose) (HPC) 99 % of control | dose: 100.0 mg/kg/injection, schedule: Q04DX003 (ip), vehicle: Klucel (hydroxypropylcellulose) (HPC) 99 % of control | dose: 200.0 mg/kg/injection, schedule: Q04DX003 (ip), vehicle: Klucel (hydroxypropylcellulose) (HPC) 97 % of control
